According to article PMC7249047, “Search for ABCB1 Modulators Among 2-Amine-5-Arylideneimidazolones as a New Perspective to Overcome Cancer Multidrug Resistance” (Molecules, 2020):
“And” between values parts separate entries of the source, which are not always exact repeats. Equal values may be shown once.

What was measured:
[1] = Cytotoxicity MTT assay, 24 h, PAR cells; format: cell-based; conditions: mouse, parental (PAR) L5178 mouse T-cell lymphoma cells, read-out: Cytotoxic effect IC50
Protocol: (§1) The cytotoxicity of compounds 7–20 was examined in both aforementioned PAR and MDR mouse T-lymphoma cell lines, using the MTT assay to estimate IC50 values. The selectivity index for cytotoxic action on MDR with respect to PAR cells was calculated (SI, Table 3). […] This range of SI may indicate ABCB1-efflux pump substrate properties for the whole series (7–20), especially distinct in the case of 19 (SI ≤ 0.29), and slightly weaker for 8, 12, 16, and 18.
(§2) L5178 mouse T-cell lymphoma cells (PAR) (ECACC Cat. No. 87111908, obtained from FDA, Silver Spring, MD, USA) were transfected with pHa MDR1/A retrovirus, as previously described by Cornwell et al.. The ABCB1-expressing cell line L5178Y (MDR) was selected by culturing the infected cells with colchicine. The parental L5178 mouse T-cell lymphoma cells and the L5178Y human ABCB1-transfected subline were cultured in McCoy’s 5A medium (Sigma-Aldrich, St Louis, MO, USA) supplemented with 10% heat-inactivated horse serum (Sigma-Aldrich, St Louis, MO, USA), 200 mM L-glutamine (Sigma-Aldrich, St Louis, MO, USA), and a penicillin-streptomycin (Sigma-Aldrich, St Louis, MO, USA) mixture in concentrations of 100 U/L and 10 mg/L, respectively. The cell lines were incubated at 37 °C, in a 5% CO2, 95% air atmosphere.
(§3) Cytotoxicity and antiproliferative assays were performed following the procedure described in the literature. Parental and multidrug-resistant mouse T-lymphoma cells were used to determine the effect of the arylideneimidazolones on the growth of cells. The effects of increasing concentrations of arylideneimidazolones on cell growth were tested in 96-well flat-bottomed microtiter plates. The compounds were diluted in a volume of 100 μL of medium.
(§4) In the case of the mouse T-lymphoma cells, the two-fold serial dilutions were prepared in 100 μL of McCoy’s 5A, horizontally. The parental (PAR) and multidrug-resistant (MDR) mouse T-lymphoma cells were adjusted to a density of 1 × 10^4 cells (for cytotoxic assay) and 6 × 10^3 (for antiproliferative assay) in 100 μL of McCoy’s 5A medium and were added to each well, with the exception of the medium control wells.
(§5) The culture plates were incubated at 37 °C for 24 h (for cytotoxicity assay) and 72 h (for antiproliferative assay); at the end of the incubation period, 20 μL of MTT (thiazolyl blue tetrazolium bromide, Sigma) solution (from a stock solution of 5 mg/mL) were added to each well. After incubation at 37 °C for 4 h, 100 μL of sodium dodecyl sulfate (SDS) (Sigma) solution (10% in 0.01 M HCI) were added to each well and the plates were further incubated at 37 °C overnight. Cell growth was determined by measuring the optical density (OD) at 540/630 nm with a Multiscan EX ELISA reader (Thermo Labsystems, Cheshire, WA, USA).
(§6) Results have been expressed in terms of IC50, defined as the inhibitory dose that reduces the growth of the cells exposed to the tested compounds by 50%, each representing the mean of a minimum of three independent experiments.

Pgp (ABCB1) ATPase = biological target: T1, Pgp (ABCB1) ATPase (Homo sapiens, UniProt P08183); experiment: Luminescent Pgp-Glo Assay (Pgp ATPase intrinsic activity); format: biochemical; conditions: 100 µM, 40 min, 37 °C; substrates stimulate basal activity (>100%)
T1 construct: purchased Promega (Madison, WI, USA)
Protocol: Compounds 11, 12, and 18 were tested at 100 µM on their influence on the ATPase activity of the Pgp pump in the luminescence Pgp-Glo™ Assay, according to previously described methods and protocols. In this assay, luminescence was measured. The Pgp-dependent decreases in luminescence reflect the ATP consumption by Pgp. […] Thus, inhibitors give results <100% of the basal activity, while stimulators/substrates cause a statistically significant increase in the basal activity. […].
The luminescent Pgp-Glo™ Assay System used for determination of the arylideneimidazolone influence on P-glycoprotein activity was purchased from Promega (Madison, WI, USA). The assay was performed in triplicate as described previously. […]. For basal P-gp activity calculation, the membranes were incubated with 100 µM of Na3VO4. The luminescence signal was measured by a microplate reader EnSpire PerkinElmer (Waltham, MA, USA). The statistical significances were calculated using GraphPad Prism 8.0.1 software.

[2] = system: parental (PAR) mouse T-lymphoma cells; experiment: Antiproliferative MTT assay, 72 h, PAR cells; format: cell-based; conditions: read-out: Antiproliferative effect IC50
Protocol: (§7) The ABCB1-expressing cell line L5178Y (MDR) was selected by culturing the infected cells with colchicine. The parental L5178 mouse T-cell lymphoma cells and the L5178Y human ABCB1-transfected subline were cultured in McCoy’s 5A medium (Sigma-Aldrich, St Louis, MO, USA) supplemented with 10% heat-inactivated horse serum (Sigma-Aldrich, St Louis, MO, USA), 200 mM L-glutamine (Sigma-Aldrich, St Louis, MO, USA), and a penicillin-streptomycin (Sigma-Aldrich, St Louis, MO, USA) mixture in concentrations of 100 U/L and 10 mg/L, respectively.
as §3, §4
(§8) Cell growth was determined by measuring the optical density (OD) at 540/630 nm with a Multiscan EX ELISA reader (Thermo Labsystems, Cheshire, WA, USA).

HEK-293 cells = experiment: Safety in vitro, MTS assay in HEK-293 cells; format: cell-based, human; conditions: highest used concentrations (50 and 100 µM), 72 h
Protocol: (§9) For safety assay, cells were seeded in 96-well plates at a concentration of 1 × 10^4 cells/well and incubated for 24 h at 37 °C in 5% CO2 atmosphere to reach 50% of confluence. Compounds 11, 12, and 18 were diluted into fresh growth medium and added to the cells at the final concentrations of 0.1–100 μM. The positive control DOX (1 μM) was also added and the cells were incubated for 72 h. The MTS (3-(4,5-dimethylthiazol-2-yl)-5-(3-carboxymethoxyphenyl)-2-(4-sulfophenyl)-2H-tetrazolium) reagent (CellTiter 96® AQueous One Solution Cell Proliferation Assay, Promega, Madison, WI, USA) was added next to each well and incubated for 4 h. The absorbance was measured using a microplate reader (EnSpire, PerkinElmer, Waltham, MA USA) at 490 nm to determine the cells’ viability. The statistical significances were calculated using GraphPad Prism 8.0.1 software.

[3] = Safety in vitro, MTS assay in HEK-293 cells; format: cell-based, human; conditions: human, HEK-293 cells, 50 µM, read-out: HEK-293 cell viability
Protocol: as §9

ABCB1 efflux pump = ABCB1 efflux pump (Homo sapiens, UniProt P08183); experiment: Rhodamine 123 accumulation assay (flow cytometry); conditions: for efflux pump inhibiting effect relative to verapamil: 20 µM, same concentration as verapamil; for FAR Quotient (%): FAR of compound related to FAR of VER tested at 20 µM; for FAR (fluorescence activity ratio): rhodamine 123 accumulation, MDR vs PAR mouse T-lymphoma cells
Protocol: The study was carried out on mouse T-lymphoma cell lines, including the parental sensitive line (PAR) and its multidrug-resistant subline (MDR) transfected with the human MDR1 (ABCB1) gene. […] The fluorescence activity ratio (FAR), as a measure of the efflux pump modulating properties, was calculated based on the fluorescence data obtained [23, 24, 25]. […] The parental L5178 mouse T-cell lymphoma cells and the L5178Y human ABCB1-transfected subline were cultured in McCoy’s 5A medium (Sigma-Aldrich, St Louis, MO, USA) supplemented with 10% heat-inactivated horse serum (Sigma-Aldrich, St Louis, MO, USA), 200 mM L-glutamine (Sigma-Aldrich, St Louis, MO, USA), and a penicillin-streptomycin (Sigma-Aldrich, St Louis, MO, USA) mixture in concentrations of 100 U/L and 10 mg/L, respectively.
The potency of the tested compounds as inhibitors of the ABCB1 efflux pump was determined using a fluorescence-based detection system, described previously in the literature [23, 26]. […] The parental (PAR) and multidrug-resistant (MDR) mouse T-lymphoma cells were adjusted to a density of 2 × 10^6/mL, re-suspended in serum-free McCoy’s 5A medium, and distributed in 0.5 mL aliquots into Eppendorf centrifuge tubes. […] The fluorescence intensity of the cell population was measured with a Partec CyFlow flow cytometer (Partec, Munster, Germany). […] The mean fluorescence intensity (%) was calculated for the treated MDR and PAR mouse T-lymphoma cells as compared to the untreated cells.

[4] = system: multidrug-resistant (MDR) mouse T-lymphoma cells; experiment: Antiproliferative MTT assay, 72 h, MDR cells; format: cell-based; conditions: for SI (selectivity index), antiproliferative: MDR with respect to PAR cells; for IC50: Mus musculus, MDR cells, 72 h, MTT, read-out: Antiproliferative effect IC50
Protocol: as §7, §3, §4, §8

[5] = Cytotoxicity MTT assay, 24 h, MDR cells; format: cell-based; conditions: mouse; for IC50 at 24 h: MDR cells, MTT, read-out: Cytotoxic effect IC50; for selectivity ratio at 24 h: cytotoxic action on MDR with respect to PAR cells, read-out: SI (selectivity index), cytotoxicity
Protocol: as §1, §2, §3, §4, §5, §6

[6] = concentration 20 µM, VER values for assay group 1 / 2

Chain of ABCB1 efflux pump (P08183 whole entry): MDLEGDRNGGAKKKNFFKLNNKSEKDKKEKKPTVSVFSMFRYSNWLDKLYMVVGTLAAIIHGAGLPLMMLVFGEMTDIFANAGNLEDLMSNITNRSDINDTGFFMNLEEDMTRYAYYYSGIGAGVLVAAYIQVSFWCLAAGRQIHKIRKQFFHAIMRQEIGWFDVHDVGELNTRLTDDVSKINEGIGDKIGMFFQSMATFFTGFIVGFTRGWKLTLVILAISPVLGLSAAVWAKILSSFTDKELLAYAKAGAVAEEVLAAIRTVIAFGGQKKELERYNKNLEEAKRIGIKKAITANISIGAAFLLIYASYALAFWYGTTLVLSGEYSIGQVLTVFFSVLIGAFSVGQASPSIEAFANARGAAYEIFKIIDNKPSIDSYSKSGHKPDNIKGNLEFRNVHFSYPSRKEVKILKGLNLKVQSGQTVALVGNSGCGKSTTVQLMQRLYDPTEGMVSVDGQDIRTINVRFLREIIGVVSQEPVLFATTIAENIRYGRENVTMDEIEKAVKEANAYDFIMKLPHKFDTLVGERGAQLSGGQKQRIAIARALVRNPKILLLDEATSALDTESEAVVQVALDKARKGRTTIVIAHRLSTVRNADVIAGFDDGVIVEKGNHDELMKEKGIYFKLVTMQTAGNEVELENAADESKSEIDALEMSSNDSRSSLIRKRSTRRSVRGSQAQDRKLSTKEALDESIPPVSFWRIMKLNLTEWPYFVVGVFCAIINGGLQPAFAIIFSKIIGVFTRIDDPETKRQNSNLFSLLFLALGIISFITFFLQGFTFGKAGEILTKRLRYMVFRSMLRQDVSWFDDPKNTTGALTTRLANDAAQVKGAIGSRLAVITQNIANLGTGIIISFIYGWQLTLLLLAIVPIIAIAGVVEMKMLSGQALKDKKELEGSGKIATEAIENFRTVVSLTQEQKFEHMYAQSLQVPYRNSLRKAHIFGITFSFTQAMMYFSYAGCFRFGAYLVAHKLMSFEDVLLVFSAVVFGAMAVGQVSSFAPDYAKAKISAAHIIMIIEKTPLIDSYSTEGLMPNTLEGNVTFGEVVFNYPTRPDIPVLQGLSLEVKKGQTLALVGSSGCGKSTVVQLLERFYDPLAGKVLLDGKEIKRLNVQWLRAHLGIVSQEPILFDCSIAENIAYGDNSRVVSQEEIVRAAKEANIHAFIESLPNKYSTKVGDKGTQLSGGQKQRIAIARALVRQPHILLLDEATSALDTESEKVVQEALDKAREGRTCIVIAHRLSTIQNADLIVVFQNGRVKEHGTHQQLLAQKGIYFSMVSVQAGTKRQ
T1 sequence (P08183 whole entry): as above

effect on ABCB1 basal activity (Pgp ATPase) (Pgp (ABCB1) ATPase) | efflux pump inhibiting effect relative to verapamil (ABCB1 efflux pump) | FAR Quotient (%) (ABCB1 efflux pump; concentration 2 µM) | FAR (fluorescence activity ratio) (ABCB1 efflux pump; concentration 2 µM) | FAR Quotient (%) (ABCB1 efflux pump; concentration 20 µM) | FAR (fluorescence activity ratio) (ABCB1 efflux pump; [6]) | IC50 [4] [µM] | melting point [°C] | SMILES | IC50 at 24 h [1] [µM] | IC50 [2] [µM] | effect on HEK-293 cell viability (HEK-293 cells) | viability at 72 h, 50 µM [3] [%] | SI (selectivity index), antiproliferative [4] | IC50 at 24 h [5] [µM] | selectivity ratio at 24 h [5]
increase in basal activity | ~1.5 fold and 1.38–1.46 fold | 7.51 | 1.203 | 146.22 | 23.419 | 25.6 | – | Cl.O=C1N=C(N2CCC(N3CCOCC3)CC2)N/C1=C\c1ccc(Oc2ccccc2)cc1 [Compound 11, (Z)-5-(4-Phenoxybenzylidene)-2-(4-morpholinopiperidin-1-yl)-imidazol-4(5H)-one hydrochloride] | 39.1 | 24.8 | significantly decreased HEK-293 cell viability | 84.2 | 0.97 | 45.5 | 0.86
increased the basal activity | – | 8.88 | 1.161 | 46.23 | 6.045 | 16.2 | 274 to 276 | Cl.O=C1N=C(N2CCC(N3CCOCC3)CC2)N/C1=C\c1ccc2c(c1)Cc1ccccc1-2 [Compound 12, (Z)-5-((9H-Fluoren-2-yl)methylene)-2-(4-morpholinopiperidin-1-yl)-imidazol-4(5H)-one hydrochloride] | 15.8 | 12.7 | – | – | 0.78 | 30.8 | 0.51
increase in basal activity | ~1.5 fold and 1.38–1.46 fold | 7.94 | 1.038 | 138.37 | 18.095 | 10.8 | 261 to 263 | Cl.NC1=N/C(=C\c2ccc3c(c2)Cc2ccccc2-3)C(=O)N1CCCN1CCOCC1 [Compound 18, (Z)-5-((9H-Fluoren-2-yl)methylene)-2-amino-3-(3-morpholinopropyl)-imidazol-4(5H)-one hydrochloride] | 16 | 13.4 | significantly decreased HEK-293 cell viability | 10.3 | 1.24 | 27.8 | 0.58
